Drawing on patent US20230111996A1, “COMPOUNDS AND CONJUGATES THEREOF” (priority 2020, published 2023), this text covers IC50 for two molecules.

Common to all, as to format: cell-based
For assay [1], the system named is A549. In words: In-vitro cytotoxicity test of compounds ([…]-GLO), A549. Particulars: Homo sapiens; A549, 72 hours. The protocol: (§1) Killing of human tumor cell lines was evaluated in vitro using the protocol recommended in the […]-GLO® kit (Promega, Madison, Wis.). Briefly, 3×10^3 cells in […] RPMI+10% FBS were added to the inner wells of white-walled 96-well plates (Corning® Costar®, Fisher Scientific, Waltham, Mass.). The following cell lines were tested: A549, HCT116 and SKBR3. The test compounds were diluted to a 5Ax stock (125 μM) in RPMI+10% FBS. Treatments were then serially diluted 1:10 in RPMI+10% FBS. […] of this series was added to the cells in triplicate, resulting in a 9-point dose curve of test compound ranging from […] at the highest concentration to 2.5×10^−7 mM at the lowest. DMSO (vehicle) and media-only controls also were included. Plates were incubated at 37° C., 5% CO2 for 72 hours. At the end of the incubation period, […] of the Substrate Solution (Promega, Madison Wis.) was added to each well. Luminescence was measured using an EnVision Multilabel plate reader (Perkin Elmer, Waltham, Mass.). Data were analyzed and graphed using GraphPad Prism software (GraphPad Software, Inc., La Jolla, Calif.).

The subject of assay [2] is SKBR3. Nature of the assay: In-vitro cytotoxicity test of compounds ([…]-GLO), SKBR3. Particulars: Homo sapiens, SK-BR-3; SKBR3, 72 hours. The protocol:
as §1

Assay [3] concerns HCT116. Nature of the assay: In-vitro cytotoxicity test of compounds ([…]-GLO), HCT116. Particulars: Homo sapiens, HCT-116; HCT116, 72 hours. The protocol:
as §1

Turning to `CC[C@@]1(O)C(=O)OCc2c1cc1n(c2=O)Cc2c-1nc1cc(F)c(N)c3c1c2CCC3` [Compound 1, (S)-4-amino-9-ethyl-5-fluoro-9-hydroxy-1,2,3,9,12,15-hexahydro-10H,13H-benzo[de]pyrano[3′,4′:6,7]indolizino[1,2-b]quinoline-10,13-dione], the IC50 – broadly, the point on the concentration scale where inhibition reaches its midpoint – in assay [1] worked out at 0.248 nM; in assay [2], 0.0958 nM; in assay [3], 0.164 nM.
In the same order, the values of `CC[C@@]1(O)C(=O)OCc2c1cc1n(c2=O)Cc2c-1nc1cc(F)c(C)c3c1c2[C@@H](N)CC3` [Exatecan] are 2.45 nM, 0.181 nM and 0.996 nM.
